Assay results as given in paper PMC6128854 (Scientific Reports, 2018).
Positions of bridges follow the written chain, without caps; N, C: chain ends. Non-standard residues stand in square brackets, D forms with d. Residues, ends and D or L forms follow the SMILES beside them. Hyp = O=C(O)[C@@H]1C[C@@H](O)CN1

Molecular target: hCav2.2 (Homo sapiens, UniProt Q00975)
Assay: cell-based
Conditions: SEM

Sequence of hCav2.2 (Q00975 whole entry, looked up): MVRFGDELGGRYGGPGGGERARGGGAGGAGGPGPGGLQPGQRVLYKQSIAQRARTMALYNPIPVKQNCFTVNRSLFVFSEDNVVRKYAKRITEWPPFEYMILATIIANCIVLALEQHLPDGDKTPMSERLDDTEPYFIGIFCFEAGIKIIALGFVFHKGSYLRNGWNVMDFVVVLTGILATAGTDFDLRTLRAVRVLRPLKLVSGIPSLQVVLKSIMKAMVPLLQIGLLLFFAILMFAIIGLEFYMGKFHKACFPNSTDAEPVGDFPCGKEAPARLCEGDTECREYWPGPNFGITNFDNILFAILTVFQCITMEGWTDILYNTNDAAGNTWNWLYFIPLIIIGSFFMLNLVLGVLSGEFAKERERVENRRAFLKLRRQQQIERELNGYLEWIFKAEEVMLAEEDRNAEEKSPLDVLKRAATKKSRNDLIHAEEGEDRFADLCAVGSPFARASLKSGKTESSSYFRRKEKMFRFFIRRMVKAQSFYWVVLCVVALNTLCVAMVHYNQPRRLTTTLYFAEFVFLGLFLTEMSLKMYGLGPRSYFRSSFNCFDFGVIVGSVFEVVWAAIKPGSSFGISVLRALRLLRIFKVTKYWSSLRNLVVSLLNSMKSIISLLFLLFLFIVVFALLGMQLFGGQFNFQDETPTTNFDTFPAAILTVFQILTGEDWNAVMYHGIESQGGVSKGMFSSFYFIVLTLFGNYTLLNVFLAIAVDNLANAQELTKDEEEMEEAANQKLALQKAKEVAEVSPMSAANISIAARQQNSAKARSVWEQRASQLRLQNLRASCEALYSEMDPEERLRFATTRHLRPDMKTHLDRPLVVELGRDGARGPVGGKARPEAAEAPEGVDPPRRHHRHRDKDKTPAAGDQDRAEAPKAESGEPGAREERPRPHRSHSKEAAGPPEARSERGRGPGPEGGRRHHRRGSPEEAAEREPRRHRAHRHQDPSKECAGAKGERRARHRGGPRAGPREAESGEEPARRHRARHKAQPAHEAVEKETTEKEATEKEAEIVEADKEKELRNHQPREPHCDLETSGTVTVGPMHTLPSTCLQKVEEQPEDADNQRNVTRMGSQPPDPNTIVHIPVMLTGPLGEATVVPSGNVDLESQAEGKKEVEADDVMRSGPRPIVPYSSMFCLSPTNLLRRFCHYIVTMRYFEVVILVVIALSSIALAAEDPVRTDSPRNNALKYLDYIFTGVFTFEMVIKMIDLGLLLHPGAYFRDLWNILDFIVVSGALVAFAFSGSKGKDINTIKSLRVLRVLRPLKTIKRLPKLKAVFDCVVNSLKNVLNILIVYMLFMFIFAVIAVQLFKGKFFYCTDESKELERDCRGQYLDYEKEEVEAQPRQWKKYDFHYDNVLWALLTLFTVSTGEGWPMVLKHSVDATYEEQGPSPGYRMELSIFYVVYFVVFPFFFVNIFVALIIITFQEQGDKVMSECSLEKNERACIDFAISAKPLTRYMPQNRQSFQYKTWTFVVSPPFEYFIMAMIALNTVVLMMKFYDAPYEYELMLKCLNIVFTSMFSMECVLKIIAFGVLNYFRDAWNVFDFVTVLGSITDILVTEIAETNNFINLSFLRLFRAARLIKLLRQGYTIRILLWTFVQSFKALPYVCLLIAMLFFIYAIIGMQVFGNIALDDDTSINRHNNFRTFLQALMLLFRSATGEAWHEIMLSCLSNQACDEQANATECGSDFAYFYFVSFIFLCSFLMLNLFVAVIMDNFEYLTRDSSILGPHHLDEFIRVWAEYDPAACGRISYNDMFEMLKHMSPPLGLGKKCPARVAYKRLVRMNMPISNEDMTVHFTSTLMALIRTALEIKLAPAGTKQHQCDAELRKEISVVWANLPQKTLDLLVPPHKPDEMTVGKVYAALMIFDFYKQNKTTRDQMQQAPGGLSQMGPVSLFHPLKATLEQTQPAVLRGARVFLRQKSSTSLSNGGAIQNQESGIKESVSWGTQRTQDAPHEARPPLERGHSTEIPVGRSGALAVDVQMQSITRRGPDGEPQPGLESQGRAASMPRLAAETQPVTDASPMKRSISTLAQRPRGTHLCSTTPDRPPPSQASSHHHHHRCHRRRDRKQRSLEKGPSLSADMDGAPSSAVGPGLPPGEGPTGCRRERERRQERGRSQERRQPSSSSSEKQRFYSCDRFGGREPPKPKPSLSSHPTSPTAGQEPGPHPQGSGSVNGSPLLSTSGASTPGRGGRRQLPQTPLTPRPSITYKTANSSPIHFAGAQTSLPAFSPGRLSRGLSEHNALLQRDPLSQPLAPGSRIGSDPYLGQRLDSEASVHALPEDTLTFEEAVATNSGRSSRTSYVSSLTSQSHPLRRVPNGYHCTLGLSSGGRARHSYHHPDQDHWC

CC[C@H](C)[C@@H]1NC(=O)[C@@H]2CSSC[C@@H]3NC(=O)[C@H](CCCCN)NC(=O)[C@H](CO)NC(=O)CNC(=O)[C@@H]4C[C@@H](O)CN4C(=O)[C@@H]4CCCN4C(=O)[C@H](CCCCN)NC(=O)[C@@H](N)CSSC[C@H](NC(=O)[C@H](CSSC[C@@H](C(=O)N[C@@H](CCCNC(=N)N)C(=O)N[C@@H](CCCCN)C(=O)N[C@@H](Cc4ccc(O)cc4)C(=O)N[C@@H](Cc4ccc(O)cc4)C(=O)O)NC(=O)[C@H](CCCNC(=N)N)NC(=O)[C@H](CCCCN)NC(=O)[C@H]([C@@H](C)O)NC(=O)[C@H](Cc4ccc(O)cc4)NC(=O)[C@H](CO)NC1=O)NC(=O)[C@H](CC(=O)O)NC(=O)[C@H](Cc1ccc(O)cc1)NC(=O)[C@H](CCSC)NC(=O)[C@H](CO)NC(=O)[C@@H]1C[C@@H](O)CN1C(=O)[C@H](CO)NC3=O)C(=O)N[C@@H]([C@@H](C)O)C(=O)N[C@@H]([C@@H](C)O)C(=O)N2 [MoVIB-[R13Y]] (H-CKP[Hyp]GSKCS[Hyp]SMYDCCTTCISYTKRCRKYY-OH; disulfide 1-16, 8-19, 15-26) was tested, and the IC50 was 3.47 ± 0.55 µM.
